# Laboratory results taken from patent publication US20120201981A1, “COMBINATIONS OF BIOLOGICAL CONTROL AGENTS WITH A NEMATICIDAL SEED COATING” (priority 2006, published 2012).
# How the values were obtained:
# [1] = system: root-knot nematodes, Meloidogyne incognita race 1; assay: Cucumber green house trial, cucumber seed coating trial 2; assay type: in vivo; details: rkn, mean ± SE
# Procedure: (§1) Pots (10-cm diameter) were filled with 250 g (dry weight) steam-pasteurized river bottom sand. Ten treatments with 6 replications were prepared (Table 1). The fungal antagonist Pochonia chlamydosporia was grown on autoclaved moist millet seed for three weeks at 22° C. Colonized millet was dried in a laminar flow hood, and stored aseptically at 4° C. until use. For soil inoculation, P. chlamydosporia-colonized millet was thoroughly mixed with the sand. Population density of the fungus was approximately 2000 chlamydospores/cc soil for rate 1 and 4000 chlamydospores/cc soil for rate 2.
# (§2) The nematode inoculum was raised during the previous 3 months on tomato plants (Lycopersicum esculentum cv. Tropic) in the greenhouse. Nematode eggs were obtained by standard bleach/sieving extraction. With the exception of the first treatment, each pot was infested with ca. 30000 eggs of M. incognita. This is a typical infestation level for nematicide tests resulting in high disease pressure (expected gall rating for non-treated control at 8 weeks was approximately 7 on a scale of 0-10 (Zeck, Pflanzenschutz-Nachrichten, Bayer AG, 24:141-144, 1971). Cucumber seeds (Cucumis sativus L. cv. Straight Eight, Burpee Seed Co.) were coated with either0.1 mg or 0.3 mg abamectin/seed or received no further treatment. Each pot received slow-release fertilizer (Osmocote Vegetable and Bedding Plant Food, 14-14-14, The Scotts Company) recommended for tomato production. The pots were arranged in a randomized complete block design in a greenhouse at ca. 24°±3° C. and ambient lighting. Irrigation was applied daily as needed. Three and eight weeks after seeding plant height or main vine length was determined. Eight weeks after seeding the trial was terminated and the plant tops were cut off. They were placed in a drying oven overnight and their weight was determined. The roots were placed in eryoglaucin solution overnight and the stained egg masses of the root-knot nematodes were counted. Root galling was rated on a scale of 0-10 (0=no galling). The trial was repeated once.
# [2] = system: Meloidogyne incognita race 3; assay: Root-knot nematode trial on tomato, abamectin seed coating with soil application of Pasteuria penetrans
# Procedure: Abamectin coated (0.3 mg a.i./seed) and non-treated tomato seed (cv. Kirby) was provided by Syngenta Crop Protection. The treatments were seeded in individual seedling trays. After 3 weeks incubation in a greenhouse at 25°±2° C., the seedlings were transplanted into 1500 cm^3 pots containing the test soil. The soil was collected from a field at the UC South Coast Research and Extension Center at Irvine (San Emigdio sandy loam, 12.5% sand, 12% clay, 75.4% silt, 0.45 OM, pH 7.4). To improve soil aeration and irrigation water drainage, ⅔ of the soil was mixed with ⅓ (v/v) plaster sand. The soil was pasteurized and infested with root-knot nematodes. Meloidogyne incognita race 3 inoculum was reared on tomato cv. UC 82 for ca. three months in greenhouse cultures. Nematode eggs were harvested from the root systems by a modification of a bleach/sieving method (Hussey and Barker, Plant Disease Reporter, 57:1025-1028 (1973)) and used to infested the test soil with 1000 eggs of M. incognita race 3 per 100 cm^3. Pasteuria penetrans was obtained from the University of California Riverside Nematology culture collection. The inoculum was reared on root-knot nematode-infested tomato plants. In the Pasteuria treatments, the soil was amended with approximately 1×10^5 endospores/g soil. The trial was arranged as a complete randomized block with 6 replications and incubated in a greenhouse at 26°±2° C. with ambient light. All pots were fertilized with Osmocote 14-14-14 (label rate for tomato production). Irrigation was applied as needed. Two months after transplanting, plant tops were cut off at the soil level, oven dried and weighted. Roots were rated for galling on a scale of 0-10 (Zeck, Bayer AG, Pflanzenschutz-Nachrichten, 24:141-144 (1971)).
# [3] = system: root-knot nematodes, Meloidogyne incognita race 1; assay: Tomato green house trials (data of two trials combined); assay type: in vivo; details: for J2/50 ml soil / Plant dry weight(g) / Plant height(cm) / egg count/root / egg masses/root / Root galling / fruit weight (g) / number of fruits/plant / total fruit weight/plant (g): tomato, rkn, mean ± SE; for J2/50 ml soil / Plant dry weight(g) / Plant height(cm) / egg count/root / egg masses/root / Root galling: trial termination; for Root galling: scale from 0-10; for fruit weight (g): average fruit weight
# Procedure: The greenhouse trials were conducted in pulp pots (10-cm diameter) filled with steam-pasteurized sand (250 cm^3). The biological control organism (BCO) P. chlamydosporia was grown as described above. P. chlamydosporium-inoculated millet seed were washed (1:2 weight/volume millet seed and sterile distilled water, 2 min shaking in electric blender) and passed through a 100-mesh sieve to remove the millet from the fungal chlamydospores. These served as the inoculum and were counted with a counting chamber (Fuchs-Rosenthal). The chlamydospores were thoroughly mixed with the sand. Population density of fungus was approximately 2000 chlamydospores/g soil for rate 1 and 4000 chlamydospores/g soil for rate 2 (Table 1). Tomato seeds (Lycopersicum esculentum cv. Tiny Tim) were coated with either 0.1 mg or 0.3 mg abamectin/seed or received no further treatment (Table 1). The tomato seeds were sown into seeding trays with commercial seedling substrate and after 2 weeks the plants were transplanted into 10-cm pulp pots. With the exception of the first treatment, each pot was infested with ca. 30000 eggs of M. incognita. Egg hatch rate was approximately 10% on Baerman funnels at 26° C. for 5 days. Each pot received slow release fertilizer (Osmocote Vegetable and Bedding Plant food, 14-14-14, The Scotts Company). Pots were arranged in a randomized complete block design with 6 replications per treatment and incubated in greenhouse at ca. 24±3C and ambient lighting. Plants were watered daily as needed. Plant height was determined and the shoots were cut off at the end of the trial. Shoots be placed in a drying oven at 69° C. for 72 h and the weight of each plant was determined. The extent of root galling was assessed on a scale from 0-10 (Zeck, 1971, supra).
# Nematode populations were determined by counting egg masses (=number of fecundate females), eggs and second-stage juvenile (J2). The roots were placed in eryoglaucin solution overnight to stain egg masses of the root-knot nematodes which enabled their enumeration (Omwega et al., 1988). The eggs were released from egg masses through a modified bleach/sieving extraction technique (Hussey and Barker, 1973). Each week, ripe (red) tomato fruits were picked off, and the number and weight were recorded. Picking was continued until fruit production seized. The trial was repeated once. All data were subject to analysis of variation with SuperANOVA (Abacus Concepts, 1989, Berkeley, Calif.). If appropriate, Fisher's Protected Least Significant Difference (LSD) was used to separate means at P=0.05.
# M. incognita race 1 = assay: Tomato miniplot field trial; assay type: in vivo, Meloidogyne incognita; details: P. chlamydosporia 4000 chlamydospores/cm^3 substrate
# Procedure: Nine miniplots (3 m diameter, 12 cm deep) were each filled with approximately 350000-cm^3 field soil (sandy loam, pH 7.2) obtained from an adjacent field with no significant infestation of plant-parasitic nematodes. Tomato seedlings (Lycopersicum esculentum cv. Tiny Tim) were raised from abamectin-treated seed (0.3 mg a.i./seed) or from Apron/Maxim-treated seed. They were seeded in seedling trays with commercial transplant substrate (Sunshine mix). The substrate was either non-amended or amended with P. chlamydosporia (4000 chlamydospores/cm^3 substrate). After 3 weeks in a greenhouse, the seedlings were transplanted into the 9 miniplots. Each plot was a randomized block with 4 treatments and three plants per treatment. Each planting area was infested by distributing 10,000 eggs of M. incognita race 1 into three 5 cm deep holes approximately 5 cm from each transplant. The plots were irrigated via low-pressure irrigation and fertilized according to local standard. After approximately 10 weeks the plants set fruit and were harvested three times during the following 3 weeks. Number of fruits and weight were taken. All data were subject to ANOVA and mean separation with Fisher's LSD (P=0.05).
# [4] = system: root-knot nematodes, Meloidogyne incognita race 1; assay: Cucumber green house trial, cucumber seed coating trial 1; assay type: in vivo; details: for main vine length (cm) @ 8 weeks / number egg masses/root / plant dry weight (g) @ 8 weeks / plant height (mm) @ 3 weeks / root galling @ 8 weeks: cucumber, rkn, mean ± SE; for root galling @ 8 weeks: scale 0-10 (0=no galling)
# Procedure: as §1, §2
# [5] = abamectin seed coating 0.1 mg/seed
# [6] = abamectin seed coating 0.3 mg/seed
# [7] = tomato cv. Kirby, two months after transplanting, mean ± SE, abamectin seed coated 0.3 mg a.i./seed, P. penetrans soil incorporated 1 × 10E5/g soil
# [8] = tomato miniplots, 10,000 eggs per planting area, mean ± SE, abamectin 0.3 mg/seed
substance,measurement,setting,value
abamectin,main vine length (cm) @ 8 weeks,[1]; [5],146.2 ± 9.8 c cm
same,number egg masses/root system @ 8 weeks,[1]; [5],80.8 ± 27.8 b
same,plant dry weight (g) @ 8 weeks,[1]; [5],6.4 ± 0.5 c g
same,plant height (mm) @ 3 weeks,[1]; [5],96.2 ± 6.4 bcd mm
same,root galling @ 8 weeks (scale 0-10),[1]; [5],5.3 ± 0.2 abc
same,main vine length (cm) @ 8 weeks,[1]; [6],131.3 ± 6.2 bc cm
same,number egg masses/root system @ 8 weeks,[1]; [6],36.7 ± 4.0 a
same,plant dry weight (g) @ 8 weeks,[1]; [6],6.0 ± 0.3 bc g
same,plant height (mm) @ 3 weeks,[1]; [6],105.8 ± 5.3 cde mm
same,root galling @ 8 weeks (scale 0-10),[1]; [6],5.0 ± 0.4 ab
same,J2/50 cc soil,"[2]; tomato cv. Kirby, trial termination, mean ± SE, abamectin seed coated 0.3 mg a.i./seed, P. penetrans soil incorporated 1 × 10E5/g soil",95 ± 15 b
same,plant top dry weight (g),[2]; [7],31.3 ± 1.8 ab g
same,root gall rating (0-10),[2]; [7],3.3 ± 0.3 ab
same,root galling (in words),"[2]; tomato, abamectin 0.3 mg a.i./seed, P. penetrans 1×10^5 endospores/g soil",reduced galling by approximately two rating classes
same,root galling reduction (in words),"[3]; tomato greenhouse, abamectin seed coating alone",approximately two rating classes below the check
same,J2/50 ml soil,[3]; [5],20.3 ± 4.3ab
same,Plant dry weight(g),[3]; [5],5.24 ± 0.35b g
same,Plant height(cm),[3]; [5],27.33 ± 0.72cd cm
same,egg count/root,[3]; [5],346133 ± 39003 days
same,egg masses/root,[3]; [5],454.2 ± 62.7c
same,J2/50 ml soil,[3]; [6],7.2 ± 5.4ab
same,Plant dry weight(g),[3]; [6],6.31 ± 0.21c g
same,Plant height(cm),[3]; [6],26.17 ± 2.14bc cm
same,egg count/root,[3]; [6],205867 ± 66056bc
same,egg masses/root,[3]; [6],381.7 ± 120.3c
same,Root galling,[3]; [5],6.67 ± 0.21ef
same,Root galling,[3]; [6],5.00 ± 0.52c
same,fruit weight (g),[3]; [5],5.19 ± 0.18bc g
same,fruit weight (g),[3]; [6],6.00 ± 0.14c g
same,number of fruits/plant,[3]; [5],31.0 ± 4.6bcd
same,total fruit weight/plant (g),[3]; [5],160.3 ± 22.8bc g
same,number of fruits/plant,[3]; [6],40.5 ± 1.5cde
same,total fruit weight/plant (g),[3]; [6],243.3 ± 11.8 g·days
same,yield (in words),"M. incognita race 1; tomato miniplot field trial, abamectin 0.3 mg a.i./seed",increased the yield significantly
same,M. incognita eggs/plant,M. incognita race 1; [8],"171,400 ± 37,100 a"
same,number fruits/plant,M. incognita race 1; [8],69.0 ± 3.2 b
same,root galling at harvest,M. incognita race 1; [8],4.5 ± 0.2 c
same,total fruit weight/plant,M. incognita race 1; [8],290.6 ± 12.6 b
same,plant growth compared to the non-treated control plants (in words),"[4]; cucumber trial 1, 0.3 mg/seed rate of abamectin",significant increases in early plant growth as well as in plant dry weight and main vine length
same,plant growth and root galling (in words),"[4]; cucumber trial 1, low rate of abamectin",neither plant growth was improved nor root galling was significantly reduced
same,main vine length (cm) @ 8 weeks,[4]; [5],100.7 ± 8.8 ab cm
same,number egg masses/root,[4]; [5],108.2 ± 14.0 ab
same,plant dry weight (g) @ 8 weeks,[4]; [5],4.2 ± 0.4 a g
same,plant height (mm) @ 3 weeks,[4]; [5],70.8 ± 2.3 a mm
same,main vine length (cm) @ 8 weeks,[4]; [6],127.8 ± 11.9 cde cm
same,number egg masses/root,[4]; [6],85.8 ± 12.8 ab
same,plant dry weight (g) @ 8 weeks,[4]; [6],5.7 ± 0.4 bc g
same,plant height (mm) @ 3 weeks,[4]; [6],90.8 ± 7.1 bc mm
same,root galling @ 8 weeks,[4]; [5],6.3 ± 0.6 de
same,root galling @ 8 weeks,[4]; [6],5.8 ± 0.4 cde
